Assays:
H460 = assay: Cytotoxicity, propidium iodide assay, H460; type: cell-based; settings: Homo sapiens, NCI-H460; Lung, H460, 48 hours treatment; read-out: IC50, C1b (H460)
Outline: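 Read-out: propidium iodide fluorescence after freeze-thaw, viability expressed as percent of untreated wells (100%) and IC50 derived from the plotted percentages. Cells (3000/well) were pre-incubated 18-24 hours, then treated 48 hours with serial compound dilutions in medium.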

OVCAR 3 = assay: Cytotoxicity, propidium iodide assay, OVCAR 3; type: cell-based; settings: Homo sapiens; Ovarian, OVCAR 3, 48 hours treatment; read-out: IC50, C3b (OVCAR 3)
Protocol: (§1) The assay was designed as in the reference, Anticancer Drugs, 2002, 13, 1-8, the disclosure of which is incorporated by reference for the teaching of the assay.
(§2) Cells from cell lines as mentioned in the table given below were seeded at a density of 3000 cells/well in a white opaque 96-well plate. Following incubation at 37° C./5% CO2 for a period of 18-24 hours, the cells were treated with various concentrations (stock solution was prepared in DMSO and subsequent dilutions were made in media as per ATCC guidelines) of the compounds of Example 1-40 was for a period of 48 hours. At the end of treatment, the spent culture medium was discarded, the cells were washed with 1×PBS and 200 μl of 7 μg/ml propidium iodide was added to each well. The plates were frozen at −70° C. for at least 24 hours. For analysis, the plates were brought to RT, allowed to thaw and were read in PoleStar fluorimeter with the fluorescence setting. The percentage of viable cells in the non-treated set of wells was considered to be 100 and the percentage viability following treatment was calculated accordingly. IC50 values were calculated from graphs plotted using these percentages. Table 4 depicts the IC50 values of compounds of Example 1-40 in individual cell lines.
(§3) The abbreviations for the Cell Lines as used in Table 4 are: […]

PANC 1 = assay: Cytotoxicity, propidium iodide assay, PANC 1; type: cell-based; settings: Homo sapiens; Pancreatic, PANC 1, 48 hours treatment; read-out: IC50, C5a (PANC 1)
Protocol: as §1, §2, §3

U 373 = assay: Cytotoxicity, propidium iodide assay, U 373; type: cell-based; settings: Homo sapiens, U373 MG; Glioblastoma, U 373, 48 hours treatment; read-out: IC50, C7a (U 373)
Protocol: as §1, §2, §3

mTOR = mTOR activity assay (cell-based); settings: Homo sapiens, Ovarian cell line A2780
Protocol: The assay was designed as in the reference, Biochemical Journal, 2000, 350, 717-722, the disclosure of which is incorporated by reference for the teaching of the assay.
Seed cells (Ovarian cell line A2780, ATCC) were plated in a 96 well microtitre plate at a density of 50,000 cells/cm^2 in appropriate complete cell culture medium. The cells were allowed to adhere for 18-24 hours. The cells were allowed to starve for 24 hours. The cells were pretreated (in triplicates) with the compounds of Example 1-40 (stock solution was prepared in DMSO and subsequent dilutions were made in kinase buffer) at a concentration of 10 μM for one hour. Then the cells were stimulated with 20% FCS for 30 minutes. A typical assay would consist of a set of unstimulated cells, a set of stimulated cells and a set of cells treated with compounds of Example 1-40 and a set of cells treated with the stimulator. The medium was discarded. The cells were fixed with 100 μL of 3.7% formaldehyde for 15 minutes. The formaldehyde was discarded by inverting the plate and tapping it on a thick tissue paper layer to remove traces. The cells were washed and permeabilized with 200 μL PBS+Triton-X 100 solution (hereafter referred to as PBS-Triton, containing 0.1% triton-X 100 in 1×PBS) three times, incubating the cells each time for 5 minutes. 100 μL blocking solution (10% FCS in PBS-Triton) was added and incubated for 1 hour at 25° C. The blocking solution was discarded and cells were incubated with the primary antibody in PBS-Triton at a dilution of 1:500 for 1 hour at RT (25° C.). [The primary antibody is Phospho-AKT (Ser 473); Cell Signaling; USA, Cat. No. 9271]. The primary antibody solution was discarded and the cells were washed 3 times with PBS-Triton solution and incubated with the HRP-conjugated secondary antibody in PBS-Triton at a dilution of 1:500 for 1 hour at RT (25° C.). The cells were washed 3 times with PBS-Triton followed by two washes with PBS (to remove traces of triton-X 100). The OPD (o-phenylene diamine dihydrochloride) substrate was prepared for detection of the signal by dissolving one tablet set (two tablets) of SigmaFast OPD (Sigma, USA, Cat No. P9187) in 20 mL distilled water. It should be kept protected from light. 100 μL OPD solutions was added to the wells and the plate was incubated in the dark for 3-5 minutes (depending upon the development of the color). The reaction was stopped by adding 50 μL 2 NH2SO4. The absorbance was measured at 490 nm. The values were expressed in the treated samples, in terms of percentage or fold decrease in AKT phosphorylation with respect to the induced sample. PI-103 (Calbiochem, USA) was used as a standard.

[1] = tested on: colorectal cancer (cell line HCT116) tumor model; assay: In vivo efficacy, HCT116 xenograft model in SCID mice; settings: 50 mpk oral, every day for 14 days
Protocol: In-vivo efficacy of the compounds of the present invention was tested in colorectal cancer (cell line HCT116) tumor model Animals were housed and cared for in accordance with the Guidelines in force published by CPCSEA (Committee for the Purpose of Control and Supervision of Experiments on Animals), Tamil Nadu, India. Procedures using laboratory animals were approved by the IAEC (Institutional Animal Ethics Committee) of the Research Center of Piramal Life Sciences Limited, Mumbai, India.
Compound storage: All the compounds including standard were stored at 4-8° C. in an amber colored bottle. The compounds in solutions were also maintained at 4-8° C. in a refrigerator. Sample for animal injection was made fresh everyday.
Dose preparation: Required compound was weighed and mixed with 0.5% (w/v) carboxymethyl cellulose (CMC) and triturated with Tween-20 (secundum artum) with gradual addition of water to make up the final concentration.
Efficacy study in SCID mice: Severely Combined Immune-Deficient (SCID strain-CBySmn.CB17-Prkdc^scid/J, The Jackson Laboratory, Stock #001803) male mice weighing about 20 g of 6-9 weeks old were used in the study.
HCT116 cells were grown in McCoy's 5A medium containing 10% fetal calf serum in 5% CO2 incubator at 37° C. Cells were pelleted by centrifugation at 1000-rpm for 10 minutes. Cells were resuspended in sterile 1×PBS to get a count of 25×10^6 cells per mL, 0.2 mL of this cell suspension (corresponding to 5×10^6 cells) was injected by subcutaneous (s.c.) route in SCID mice. Mice were observed every alternate day for palpable tumor mass. Once the tumor size reached a size of 5-7 mm in diameter, animals were randomized into respective treatment groups. Dose was administered every day for 14 days. Tumor size was recorded on every second day.
Tumor weight (mg) was estimated according to the formula for a prolate ellipsoid: {Length (mm)×[width (mm)^2]×0.5}assuming specific gravity to be one and π to be three.
Tumor growth in compound treated animals was calculated as T/C (Treated/Control)×100% and Growth inhibition Percent (GI %) was [100−T/C %]. […]

Cc1cccc(S(=O)(=O)n2c(=O)n(-c3ccc(C(C)(C)C#N)cc3)c3c4cc(Br)ccc4ncc32)c1 [Example 3, 2-(4-(8-Bromo-2-oxo-3-(m-tolylsulfonyl)-2,3-dihydro-1H-imidazo[4,5-c]quinolin-1-yl)phenyl)-2-methylpropanenitrile]
IC50 (H460): ≤ 1000 nM | IC50 (OVCAR 3): 1000 to 3000 nM | IC50 (PANC 1): 1000 to 3000 nM | IC50 (U 373): > 3000 nM

CC(C)(C#N)c1ccc(-n2c(=O)n(C(=O)c3ccccc3)c3cnc4ccc(Br)cc4c32)cc1 [Example 30, 2-(4-(3-Benzoyl-8-bromo-2-oxo-2,3-dihydro-1H-imidazo[4,5-c]quinolin-1-yl)phenyl)-2-methylpropanenitrile]
inhibition at 10 µM (mTOR): 10 to 50% | IC50 (H460): ≤ 1000 nM | IC50 (OVCAR 3): ≤ 1000 nM | IC50 (PANC 1): 1000 to 3000 nM | IC50 (U 373): ≤ 1000 nM | % growth inhibition on 14th day [1]: 35%

C/C=C/C(=O)n1c(=O)n(-c2ccc(C(C)(C)C#N)cc2)c2c3cc(Br)ccc3ncc21 [Example 27, (E)-2-(4-(8-Bromo-3-but-2-enoyl-2-oxo-2,3-dihydro-1H-imidazo[4,5-c]quinolin-1-yl)phenyl)-2-methylpropanenitrile]
inhibition at 10 µM (mTOR): > 50% | IC50 (H460): ≤ 1000 nM | IC50 (OVCAR 3): ≤ 1000 nM | IC50 (PANC 1): ≤ 1000 nM | % growth inhibition on 14th day [1]: 36%

C/C=C/C(=O)n1c(=O)n(-c2ccc(C(C)(C)C#N)cc2)c2c3cc(Cl)ccc3ncc21 [Example 38, (E)-2-(4-(3-But-2-enoyl-8-chloro-2-oxo-2,3-dihydro-1H-imidazo[4,5-c]quinolin-1-yl)phenyl)-2-methylpropanenitrile]
inhibition at 10 µM (mTOR): > 50% | IC50 (H460): ≤ 1000 nM | IC50 (OVCAR 3): ≤ 1000 nM | IC50 (PANC 1): ≤ 1000 nM | % growth inhibition on 14th day [1]: 17%

CC(C)(C#N)c1ccc(-n2c(=O)n(C(=O)c3ccccc3)c3cnc4ccc(Cl)cc4c32)cc1 [Example 37, 2-(4-(3-Benzoyl-8-chloro-2-oxo-2,3-dihydro-1H-imidazo[4,5-c]quinolin-1-yl)phenyl)-2-methylpropanenitrile]
inhibition at 10 µM (mTOR): 10 to 50% | IC50 (H460): 1000 to 3000 nM | IC50 (OVCAR 3): 1000 to 3000 nM | IC50 (U 373): > 3000 nM
